Measurements published in patent US10150793B2, “Antagonists of CB1 receptor” (INSERM (Institut National de la Santé et de la Recherche …, priority 2011, dated 2018).

Columns and labels:
[1] = biological target: T1, human CB1 receptor (Homo sapiens, UniProt P21554); assay: Radioligand binding of the CB1 agonist [3H]CP55,940 in CHO cells; conditions: pregnenolone 10^-12 to 10^-4 M
T1 construct: host or cells: CHO cells
Description: The binding assay for orthosteric binding of pregnenolone has been evaluated using Chinese hamster ovary (CHO) cells expressing the human CB1 receptor.
The CB1 binding of pregnenolone has been evaluated by the affinity of pregnenolone for the agonist site of the human CB1 cannabinoid receptor expressed in CHO cells, determined in a radioligand binding assay of the CB1 agonist [3H] CP 55940. The experiments were performed by CEREP France, using the standard procedures of this provider.

[2] = Allopregnanolone and epiallopregnanolone in nucleus accumbens after high dose injection (GC/MS); format: in vivo, Wistar rats; conditions: 50 mg/kg; 30 min after the injections
Description: The capacity of a compound of the invention to be or not to be converted into active pregnenolone downstream derivatives may be evaluated by administering this compound, for example by injecting 50 mg/kg, to a rat, sacrificing the rat 30 min later, measuring the concentration of allopregnanolone and epiallopregnanolone in nucleus accumbens of rat by GC/MS and comparing these concentrations to allopregnanolone and epiallopregnanolone in a rat whose has been injected only a vehicle or pregnenolone.
The concentrations of allopregnanolone and epiallopregnanolone were measured in nucleus accumbens of individual animal by GC/MS 30 min after the injections.

[3] = system: dopaminergic neurons; assay: Coupled in vivo microdialysis and electrophysiology: VTA dopaminergic neuron firing and dopamine outflow in nucleus accumbens; parameters: species or system rats
Description: Surgery and perfusion procedure were performed to allow concomitant electrophysiological and microdialysis monitoring. Briefly, rats were anesthetized using a 2% mixture of isoflurane/air, and a catheter was inserted into the femoral vein for intravenous drug administration. Thereafter, animals were placed in a stereotaxic frame (David Kopf Instruments, Phymep, Paris, France) equipped with a nose mask for constant delivery of the gas anesthesia (2% isoflurane during surgery, 1.5% isoflurane during electrophysiology and microdialysis experiment), and their rectal temperature was monitored and maintained at 37±1° C. by a heating pad (CMA 150, Carnégie Medecin, Phymep). […]
Single unit recording of DA neuronal firing and monitoring of DA extracellular levels were started 2 h after the beginning of probe perfusion (stabilization period). Dialysates (30 μL) were collected on ice every 15 min, and immediately analyzed to determine the baseline values of DA extracellular levels, defined by three consecutive samples in which DA content varied by less than 10% (9). […] DA neuron firing rate was recorded for 3-5 min to obtain the firing baseline, defined by a variation of less than 10% of the average frequency discharge of the DA neuron. […]
In this example the inventors further analyzed the ability of pregnenolone to inhibit the effects of CB1 activation. […]

[4] = biological target: CB1 receptor (Mus musculus, UniProt P47746); assay: THC inhibition of fEPSP in nucleus accumbens slices; format: cell-based, mice; parameters: from tissue; host or cells: acute brain slices, nucleus accumbens; conditions: slices pre-incubated with pregnenolone 100 nM
Sequence of CB1 receptor (P47746 whole entry, the tested form may be a part): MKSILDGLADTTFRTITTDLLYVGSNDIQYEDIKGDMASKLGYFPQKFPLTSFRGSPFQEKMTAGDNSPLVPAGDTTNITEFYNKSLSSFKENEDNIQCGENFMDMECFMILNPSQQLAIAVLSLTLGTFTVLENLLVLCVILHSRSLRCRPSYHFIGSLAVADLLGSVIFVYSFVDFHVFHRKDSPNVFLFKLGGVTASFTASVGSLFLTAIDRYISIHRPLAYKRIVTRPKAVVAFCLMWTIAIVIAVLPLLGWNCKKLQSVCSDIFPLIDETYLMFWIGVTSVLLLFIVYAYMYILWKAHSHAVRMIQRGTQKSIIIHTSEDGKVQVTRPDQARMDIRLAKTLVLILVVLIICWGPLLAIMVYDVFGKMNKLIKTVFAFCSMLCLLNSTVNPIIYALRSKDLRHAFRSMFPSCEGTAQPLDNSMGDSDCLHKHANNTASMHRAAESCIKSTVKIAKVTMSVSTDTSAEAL
Description: Animals were deeply anesthetized with Isoflourane and transcardially perfused with a sucrose-based physiological solution at 4° C. (in mM: 23 NaHCO3, 70 Choline Cl, 75 Sucrose, 25 Glucose, 2.5 KCl, 1.25 NaH2PO4, 7 MgCl2 and 0.5 CaCl2). The brain was removed and sliced (250-300 μm) in the coronal plane using a vibratome (Campden Instruments, Loughborough, UK). During the slicing process, the brain was maintained in the sucrose-based solution. Immediately after cutting, slices were stored at 32° C. for 40 minutes in a low-calcium artificial cerebrospinal fluid (low-Ca^2+ ACSF) that contained (in mM): 23 NaHCO3, 120 NaCl, 11 Glucose, 2.5 KCl, 1.2 NaH2PO4, 2.4 MgCl2, 1.2 CaCl2. Slices were then stored in low-Ca^2+ ACSF at room temperature until recording.
For fEPSPs, extracellular glass recording and stimulating electrodes were filled with ACSF. Synaptic potentials were evoked by means of two electric stimuli (0.1-0.25 mA, 200 μsec duration) delivered at 20 Hz every 10 seconds. Stimulating electrode was placed at a distance>150 μm in the dorsomedial direction from the recoding electrode.
In order to test the effect of pregnenolone on a wider range of THC concentrations, we recorded fEPSP in NAc slices. Due to the possibility to achieved stable fEPSP measurements for several hours, this technique is ideally suited to perform dose-response curves and has previously been used to address CB1 receptor function (Robbe et al., 2001; Mato et al., 2004). Thus, AMPAR-mediated evoked fEPSP were recorded by electrically stimulating local axons.

T1 sequence (P21554 whole entry): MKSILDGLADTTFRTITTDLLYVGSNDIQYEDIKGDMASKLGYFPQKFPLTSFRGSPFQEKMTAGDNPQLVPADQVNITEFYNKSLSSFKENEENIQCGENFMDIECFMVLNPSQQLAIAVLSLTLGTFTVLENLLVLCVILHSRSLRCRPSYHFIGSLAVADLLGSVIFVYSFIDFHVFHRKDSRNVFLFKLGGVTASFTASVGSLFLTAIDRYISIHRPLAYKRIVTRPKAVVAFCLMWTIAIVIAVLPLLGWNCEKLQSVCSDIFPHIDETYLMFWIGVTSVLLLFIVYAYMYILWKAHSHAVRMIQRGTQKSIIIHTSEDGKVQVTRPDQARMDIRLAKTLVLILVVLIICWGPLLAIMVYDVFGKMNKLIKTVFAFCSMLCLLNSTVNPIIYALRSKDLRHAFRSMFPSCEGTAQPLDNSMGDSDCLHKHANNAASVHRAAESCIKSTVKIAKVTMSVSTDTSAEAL

With `CC(=O)[C@H]1CC[C@H]2[C@@H]3CC=C4C[C@@H](O)CC[C@]4(C)[C@H]3CC[C@]12C` [Pregnenolone, 5-Pregnen-3β-ol-20-one] the “orthosteric binding of the CB1 agonist [3H]CP55,940” value [1] was “did not modify the specific binding”, the “orthosteric binding of the CB1 agonist [3H]CP55,940” value ([1]; listed as pregnenolone) was “did not displace the orthosteric binding” and the “production of allopregnanolone and epiallopregnanolone in nucleus accumbens” value [2] was “allopregnanolone and epiallopregnanolone increased”. The “effect on cocaine-induced increase in activity of the dopaminergic system” value ([3]; pregnenolone 2 mg/kg sc 30 min before cocaine 0.0125 to 0.8 mg/kg iv cumulative) was “able to antagonize the increase in activity of the dopaminergic system”, the “effect on THC-induced increase in dopamine release and dopaminergic neuron activity” value ([3]; sc 30 min prior to THC 0.15 to 1.2 mg/kg iv cumulative) was “strongly blunted the increase in dopamine release and in the activity of the dopaminergic neurons” and the “inhibition of fEPSP by THC” value ([4]; THC 10 μM) was 11.1±3.2%. For the same molecule, the “inhibition of fEPSP by THC” value ([4]; THC 20 μM) was 22.7±2.7% and the “inhibition of fEPSP by THC” value ([4]; THC 40 μM) was 34.6±3.1%.
